Data set [1] can be described thus: Metabolic stability in pooled human liver microsomes. The format is in vitro ADME. The following applies: human, pooled human liver microsomes, pooled human liver microsomes 0.5 mg/mL, 1 μM test compound, 37° C., * rows = mean of two runs. As for the experimental part:
Pooled human liver microsomes in PBS at a concentration of 0.5 mg/mL was incubated with or without 1 mM NADPH for 70 min at 37° C. Test compound was added after 10 minutes to a final concentration of 1 μM. Samples were withdrawn at 0, 5, 15 and 60 minutes and added to test tubes containing acetonitrile, to stop the reaction, and with terfenadine, used as internal standard. After centrifugation at 10 000×g for 5 minutes the supernatant was diluted 1:1 with 1% formic acid. Samples were separated on a reverse phase column and detected by triple quadrupole MSMS (Agilant model 6540). The concentration of the parent compound at the different time points was measured with an external standard curve using terfenadine as internal standard and the initial metabolic rate in the presence or absence of NADPH calculated.
In general terms: Liver microsomes are a subcellular fraction often used to study metabolism.

Another data set concerns CYP3A4&5. As to the kind of experiment: in vitro. Particulars: human, human liver microsomes, probe testosterone.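 Also: Read-out is the metabolite generated from the probe substrate, quantified as HPLC-MS/MS peak area once incubation ends.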
The next data set concerns the target CYP2C9 (Homo sapiens, UniProt P11712). As to the kind of experiment: CYP inhibition in human liver microsomes (Eurofins ITEMG232). In kind it is in vitro ADME. Set-up: isoform-specific substrates incubated with human liver microsomes; tissue Eurofins ITEMG232 (protocol number); host or cells: human liver microsomes. Particulars: human, probe diclofenac, substrate diclofenac, read-out: CYP2C9 Inh %.

In a further data set the target is T1, CYP2B6 (Homo sapiens, UniProt P20813).
T1 construct: isoform-specific substrates incubated with human liver microsomes; tissue Eurofins ITEMG232 (protocol number); host or cells: human liver microsomes
T1 sequence (P20813 1-491): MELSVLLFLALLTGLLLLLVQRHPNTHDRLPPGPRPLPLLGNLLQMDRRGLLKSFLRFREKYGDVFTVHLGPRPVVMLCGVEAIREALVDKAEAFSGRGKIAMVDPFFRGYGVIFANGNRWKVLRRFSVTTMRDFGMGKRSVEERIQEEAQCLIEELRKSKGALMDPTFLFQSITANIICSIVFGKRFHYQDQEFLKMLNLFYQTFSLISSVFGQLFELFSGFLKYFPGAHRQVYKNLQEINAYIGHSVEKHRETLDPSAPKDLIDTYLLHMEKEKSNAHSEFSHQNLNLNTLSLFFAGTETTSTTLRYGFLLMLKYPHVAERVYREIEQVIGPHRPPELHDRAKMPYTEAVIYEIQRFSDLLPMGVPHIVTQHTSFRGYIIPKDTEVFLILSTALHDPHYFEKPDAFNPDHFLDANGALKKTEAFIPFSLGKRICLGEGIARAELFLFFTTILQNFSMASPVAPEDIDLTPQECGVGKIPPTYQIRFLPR
Described as above. The format is in vitro ADME. The following applies: probe bupropion, substrate bupropion, read-out: CYP2B6 Inh %.

For another data set, the target named is T2, CYP1A2 (Homo sapiens, UniProt P05177).
T2 construct: isoform-specific substrates incubated with human liver microsomes; tissue Eurofins ITEMG232 (protocol number); host or cells: human liver microsomes
T2 sequence (P05177 whole entry, canonical isoform): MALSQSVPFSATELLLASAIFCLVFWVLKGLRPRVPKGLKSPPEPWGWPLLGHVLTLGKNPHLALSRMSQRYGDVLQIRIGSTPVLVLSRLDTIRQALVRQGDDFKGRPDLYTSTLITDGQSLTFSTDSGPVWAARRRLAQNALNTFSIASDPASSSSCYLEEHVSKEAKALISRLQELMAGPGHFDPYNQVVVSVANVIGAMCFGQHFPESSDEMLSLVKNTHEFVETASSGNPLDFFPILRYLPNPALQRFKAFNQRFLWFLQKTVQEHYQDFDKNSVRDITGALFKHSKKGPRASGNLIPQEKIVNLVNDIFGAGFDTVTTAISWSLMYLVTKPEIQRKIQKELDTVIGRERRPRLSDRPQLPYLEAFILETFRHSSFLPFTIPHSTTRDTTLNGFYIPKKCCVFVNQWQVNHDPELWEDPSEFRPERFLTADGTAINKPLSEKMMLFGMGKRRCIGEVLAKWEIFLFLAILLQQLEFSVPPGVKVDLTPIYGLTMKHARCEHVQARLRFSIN
As to the kind of experiment: in vitro. In kind it is in vitro ADME. The following applies: human, microsomes, human liver microsomes, substrate phenacetin, read-out: CYP1A2 Inh %.

For data set [2], the target named is T3, human recombinant AT2 receptor (Homo sapiens, UniProt P50052).
T3 construct: purchased Eurofins ITEM26 (protocol number)
T3 sequence (P50052 1-363): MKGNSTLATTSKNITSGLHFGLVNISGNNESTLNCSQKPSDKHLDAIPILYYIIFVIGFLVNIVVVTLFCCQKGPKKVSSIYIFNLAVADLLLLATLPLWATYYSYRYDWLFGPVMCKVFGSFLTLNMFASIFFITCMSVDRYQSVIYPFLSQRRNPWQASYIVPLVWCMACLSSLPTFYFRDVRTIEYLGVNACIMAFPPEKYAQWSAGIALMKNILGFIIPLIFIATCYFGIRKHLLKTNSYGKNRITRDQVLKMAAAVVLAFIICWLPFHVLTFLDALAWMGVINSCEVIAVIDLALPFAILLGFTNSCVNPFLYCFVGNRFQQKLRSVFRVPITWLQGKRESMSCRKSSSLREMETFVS
As to the kind of experiment: Binding to AT2 receptor, radiometric scintillation assay (Eurofins ITEM26). Particulars: ligand 125I CGP 42112A, * rows = mean of runs; for Ki: seven-point dose-response curve; for IC50: test compounds at 1, 10, 100 and 1000 nM, read-out: AT2 GraFit IC50.

A further data set addresses CYP3A4 (Homo sapiens, UniProt P08684). In words: CYP inhibition in human liver microsomes (Eurofins ITEMG232), midazolam substrate. In kind it is in vitro ADME. Also noted: isoform-specific substrates incubated with human liver microsomes; tissue Eurofins ITEMG232 (protocol number); host or cells: human liver microsomes. Particulars: human, probe midazolam, read-out: CYP3A4 midazolam Inh %.

A further data set deals with T4, CYP2C8 (Homo sapiens, UniProt P10632).
T4 construct: isoform-specific substrates incubated with human liver microsomes; tissue Eurofins ITEMG232 (protocol number); host or cells: human liver microsomes
T4 sequence (P10632 1-490): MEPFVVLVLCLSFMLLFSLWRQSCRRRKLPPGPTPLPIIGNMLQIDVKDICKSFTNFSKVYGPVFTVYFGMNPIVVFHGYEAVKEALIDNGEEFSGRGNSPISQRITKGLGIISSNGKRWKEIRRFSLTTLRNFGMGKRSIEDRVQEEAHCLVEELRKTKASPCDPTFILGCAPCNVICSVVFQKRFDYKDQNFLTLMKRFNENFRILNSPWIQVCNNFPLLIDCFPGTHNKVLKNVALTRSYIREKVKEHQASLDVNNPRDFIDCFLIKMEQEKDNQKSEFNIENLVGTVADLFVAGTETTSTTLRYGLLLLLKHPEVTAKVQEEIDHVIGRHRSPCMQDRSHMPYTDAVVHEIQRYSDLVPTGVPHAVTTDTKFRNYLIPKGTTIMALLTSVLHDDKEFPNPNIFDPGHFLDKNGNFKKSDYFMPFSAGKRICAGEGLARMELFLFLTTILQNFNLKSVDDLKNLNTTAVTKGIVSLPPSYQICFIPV
In words: CYP inhibition in human liver microsomes (Eurofins ITEMG232). In kind it is in vitro ADME. The following applies: human, probe paclitaxel and amodiaquine, substrate paclitaxel and amodiaquine, read-out: CYP2C8 Inh %.

In a further data set the target is T5, CYP2C19 (Homo sapiens, UniProt P33261).
T5 construct: isoform-specific substrates incubated with human liver microsomes; tissue Eurofins ITEMG232 (protocol number); host or cells: human liver microsomes
T5 sequence (P33261 whole entry, canonical isoform): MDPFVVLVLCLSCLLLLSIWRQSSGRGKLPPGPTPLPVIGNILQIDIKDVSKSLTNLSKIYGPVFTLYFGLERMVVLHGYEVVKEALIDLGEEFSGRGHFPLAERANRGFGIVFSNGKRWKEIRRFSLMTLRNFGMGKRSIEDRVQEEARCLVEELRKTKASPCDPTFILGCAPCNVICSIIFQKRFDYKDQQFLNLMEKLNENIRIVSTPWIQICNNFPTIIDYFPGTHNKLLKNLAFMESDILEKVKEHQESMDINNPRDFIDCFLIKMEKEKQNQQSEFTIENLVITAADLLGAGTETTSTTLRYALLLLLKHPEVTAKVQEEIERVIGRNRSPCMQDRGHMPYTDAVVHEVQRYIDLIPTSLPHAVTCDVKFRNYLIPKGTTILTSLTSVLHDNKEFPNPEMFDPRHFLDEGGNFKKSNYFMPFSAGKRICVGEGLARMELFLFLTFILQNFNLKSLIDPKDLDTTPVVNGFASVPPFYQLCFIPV
The data set is described as above. In kind it is in vitro ADME. The following applies: human, probe omeprazole, substrate omeprazole, read-out: CYP2C19 Inh %.

In the next data set the target is T6, CYP2D6 (Homo sapiens, UniProt P10635).
T6 construct: isoform-specific substrates incubated with human liver microsomes; tissue Eurofins ITEMG232 (protocol number); host or cells: human liver microsomes
T6 sequence (P10635 whole entry, canonical isoform): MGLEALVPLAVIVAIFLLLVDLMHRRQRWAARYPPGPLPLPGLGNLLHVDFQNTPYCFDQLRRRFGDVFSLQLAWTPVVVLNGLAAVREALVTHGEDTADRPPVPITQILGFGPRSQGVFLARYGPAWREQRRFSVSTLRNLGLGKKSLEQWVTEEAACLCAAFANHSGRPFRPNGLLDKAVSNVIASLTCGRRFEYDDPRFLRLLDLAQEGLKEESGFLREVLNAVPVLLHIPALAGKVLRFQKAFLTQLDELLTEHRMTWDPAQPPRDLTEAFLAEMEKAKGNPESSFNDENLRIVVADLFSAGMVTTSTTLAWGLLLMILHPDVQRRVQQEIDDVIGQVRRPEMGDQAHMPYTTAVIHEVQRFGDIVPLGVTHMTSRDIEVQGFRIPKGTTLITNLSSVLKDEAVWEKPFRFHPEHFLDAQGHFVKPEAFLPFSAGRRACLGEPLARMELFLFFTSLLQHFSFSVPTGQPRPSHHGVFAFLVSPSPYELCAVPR
The data set is described as above. In kind it is in vitro ADME. Particulars: probe dextromethorphan, substrate dextromethorphan, read-out: CYP2D6 Inh %.

The mark [3] stands for this setting: with 1 mM NADPH, read-out: T1/2, + NaDPH.
[4] abbreviates: without NADPH, read-out: T1/2, no NaDPH.

The structures appear in SMILES notation. Like-named read-outs stand apart in the source and are kept apart here.

CYP2C9, sequence (P11712 whole entry, canonical isoform): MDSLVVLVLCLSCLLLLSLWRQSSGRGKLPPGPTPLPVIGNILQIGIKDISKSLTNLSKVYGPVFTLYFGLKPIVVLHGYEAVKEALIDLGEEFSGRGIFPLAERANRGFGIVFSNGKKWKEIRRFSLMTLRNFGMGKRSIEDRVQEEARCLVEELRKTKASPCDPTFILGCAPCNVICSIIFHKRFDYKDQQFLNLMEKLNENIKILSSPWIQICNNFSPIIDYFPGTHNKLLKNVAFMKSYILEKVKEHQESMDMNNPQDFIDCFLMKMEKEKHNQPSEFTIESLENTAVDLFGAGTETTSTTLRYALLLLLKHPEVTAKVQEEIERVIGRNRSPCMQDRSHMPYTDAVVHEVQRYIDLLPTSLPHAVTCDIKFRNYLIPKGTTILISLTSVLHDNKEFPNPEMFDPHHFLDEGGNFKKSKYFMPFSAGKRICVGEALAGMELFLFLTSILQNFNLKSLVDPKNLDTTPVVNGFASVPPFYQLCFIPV
CYP3A4, sequence (P08684 whole entry, canonical isoform): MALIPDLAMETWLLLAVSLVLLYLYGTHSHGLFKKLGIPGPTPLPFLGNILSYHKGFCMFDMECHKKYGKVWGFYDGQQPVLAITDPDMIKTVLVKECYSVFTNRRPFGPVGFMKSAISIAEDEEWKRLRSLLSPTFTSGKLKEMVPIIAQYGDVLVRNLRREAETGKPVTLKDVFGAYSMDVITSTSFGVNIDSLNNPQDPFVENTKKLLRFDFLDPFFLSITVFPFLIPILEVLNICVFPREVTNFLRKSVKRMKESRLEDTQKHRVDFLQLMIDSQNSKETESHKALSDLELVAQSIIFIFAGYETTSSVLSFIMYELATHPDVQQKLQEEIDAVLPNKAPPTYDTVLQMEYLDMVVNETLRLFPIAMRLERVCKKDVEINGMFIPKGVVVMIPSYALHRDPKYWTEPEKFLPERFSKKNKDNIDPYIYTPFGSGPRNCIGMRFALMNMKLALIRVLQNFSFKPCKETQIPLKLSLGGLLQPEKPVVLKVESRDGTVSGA
Description for CYP1A2: The following substrates were used; CYP1A phenacetin, CYP2B36 bupropion, CYP2C8 paclitaxel and amodiaquine, CYP2C9 diclofenac, CYP2C19 omeprazole, CYP2D6 dextromethorphan, CYP3A midazolam and testosterone.
At the end of the incubation, the formation of metabolite was monitored by HPLC-MS/MS as the peak area response.

Consider `CC(C)Cc1ccc(S(=O)(=O)Nc2ncc(Br)cn2)c(-c2ccc(Cn3ccnc3C(C)(C)C)cc2)c1` [Example 1, N-(5-Bromopyrimidin-2-yl)-4′-((2-(tert-butyl)-1H-imidazol-1-yl)methyl)-5-isobutyl-[1,1′-biphenyl]-2-sulfonamide], for which the half-life at 1 μM in data set [1] (setting [3]) and in data set [1] (setting [4]) was > 1 h in each case. The inhibition at 10 µM worked out at 18.2% with CYP3A4&5; 60.5% at CYP2C9; 19.5% at CYP2B6; 85.4% on CYP1A2; 41.7% at CYP3A4; 87.8% at CYP2C8. Also, the figures for the inhibition at 10 µM on CYP2C19 and at CYP2D6 were 37.2% and 14.1%, respectively. Besides, the Ki (usually the equilibrium dissociation constant of an inhibitor or competing ligand from its target) in data set [2] turned out to be 2.12 nM. In addition, the IC50 (commonly the concentration at which inhibition is half-maximal) in data set [2] was 4.2 nM.
For the molecule `CC(C)Cc1ccc(S(=O)(=O)Nc2nccs2)c(-c2ccc(Cn3ccnc3C(C)(C)C)c(F)c2)c1` [Example 8, 4′-((2-(tert-Butyl)-1H-imidazol-1-yl)methyl)-3′-fluoro-5-isobutyl-N-(thiazol-2-yl)-[1,1′-biphenyl]-2-sulfonamide], the values for the half-life at 1 μM in data set [1] (setting [3]) and in data set [1] (setting [4]) were 0.567 h and > 1 h, respectively. The inhibition at 10 µM stood at 42.6% in the data set with CYP3A4&5; 86.6% on CYP2C9; 55% at CYP2B6; 43% at CYP1A2; 0.4% at CYP3A4; 88.3% at CYP2C8. Besides, the inhibition at 10 µM at CYP2C19 turned out to be 71.2%; on CYP2D6, 32.6%. In [2], the Ki came to 2.92 nM. Besides, the IC50 in [2] is 5.85 nM.
As for `CC(C)Cc1ccc(S(=O)(=O)Nc2ncc(Cl)cn2)c(-c2ccc(Cn3ccnc3C(C)(C)C)c(F)c2)c1` [Example 10, 4′-((2-(tert-Butyl)-1H-imidazol-1-yl)methyl)-N-(5-chloropyrimidin-2-yl)-3′-fluoro-5-isobutyl-[1,1′-biphenyl]-2-sulfonamide], the half-life at 1 μM in data set [1] (setting [3]) and in data set [1] (setting [4]) was > 1 h throughout. The inhibition at 10 µM in the data set with CYP3A4&5 was -17.5%; at CYP2C9, 87%; on CYP2B6, 58.3%; at CYP1A2, 37.7%; on CYP3A4, 32.1%; at CYP2C8 it was 93.2%. Besides, the inhibition at 10 µM on CYP2C19 was 55.3%; at CYP2D6, 31.9%. The Ki in data set [2] stood at 1.5 nM. The IC50 in data set [2] worked out at 3 nM.
As to `CC(C)Cc1ccc(S(=O)(=O)Nc2ncc(Br)cn2)c(-c2ccc(Cn3ccnc3C(C)(C)C)c(F)c2)c1` [Example 11, N-(5-Bromopyrimidin-2-yl)-4′-((2-(tert-butyl)-1H-imidazol-1-yl)methyl)-3′-fluoro-5-isobutyl-[1,1′-biphenyl]-2-sulfonamide], the half-life at 1 μM in data set [1] (setting [3]) and in [1] (setting [4]) was > 1 h each time. Further, the inhibition at 10 µM was -19.3% in the data set on CYP3A4&5; 82% on CYP2C9; 48% at CYP2B6; 14.3% at CYP1A2; 16.1% on CYP3A4; 89.6% at CYP2C8. The inhibition at 10 µM on CYP2C19 is 47.5%; at CYP2D6, 20%. Besides, in [2], the inhibition constant (Ki) was 1.54 nM. For the same molecule, the IC50 in [2] was 3.07 nM.
With `Cc1nc(NS(=O)(=O)c2ccc(CC(C)C)cc2-c2ccc(Cn3ccnc3C(C)(C)C)cc2)oc1C` [Example 13, 4′-((2-(tert-Butyl)-1H-imidazol-1-yl)methyl)-N-(4,5-dimethyloxazol-2-yl)-5-isobutyl-[1,1′-biphenyl]-2-sulfonamide], the half-life at 1 μM in data set [1] (setting [3]) is 0.567 h; in data set [1] (setting [4]), > 1 h. In addition, the inhibition at 10 µM is -2.8% in the data set on CYP3A4&5; 50.9% at CYP2C9; 30.4% at CYP2B6; 19.8% at CYP1A2; -48.7% on CYP3A4; 71.3% on CYP2C8. Further, the inhibition at 10 µM was 52.1% at CYP2C19 and 17.6% at CYP2D6. Besides, the Ki in data set [2] was 22.9 nM. Further, the IC50 in [2] came out at 45.8 nM.
As for `COc1ccc(NS(=O)(=O)c2ccc(CC(C)C)cc2-c2ccc(Cn3ccnc3C(C)(C)C)cc2)nn1` [Example 14, 4′-((2-(tert-Butyl)-1H-imidazol-1-yl)methyl)-5-isobutyl-N-(6-methoxypyridazin-3-yl)-[1,1′-biphenyl]-2-sulfonamide], the results for the half-life at 1 μM in [1] (setting [3]) and in data set [1] (setting [4]) were 0.333 h and > 1 h, respectively. Moreover, the inhibition at 10 µM with CYP3A4&5 is 24.8%; at CYP2C9 it was 55.5%; on CYP2B6 it was 25.9%; on CYP1A2, 30%; on CYP3A4 it was 10.3%; on CYP2C8 it was 74.3%. Further, the results for the inhibition at 10 µM on CYP2C19 and on CYP2D6 were 58.4% and 24.6%, respectively. In data set [2], the Ki is 2.6 nM. Further, the IC50 in data set [2] was 5.2 nM.
Turning to `CC(C)Cc1ccc(S(=O)(=O)Nc2ncc(C(F)(F)F)cn2)c(-c2ccc(Cn3ccnc3C(C)(C)C)c(F)c2)c1` [Example 21, 4′-((2-(tert-Butyl)-1H-imidazol-1-yl)methyl)-3′-fluoro-5-isobutyl-N-(5-(trifluoromethyl)pyrimidin-2-yl)-[1,1′-biphenyl]-2-sulfonamide], the half-life at 1 μM in data set [1] (setting [3]) and in data set [1] (setting [4]) was > 1 h in each case. In addition, the inhibition at 10 µM is 26.4% in the data set with CYP3A4&5; 76.8% on CYP2C9; 37.9% on CYP2B6; -6.4% at CYP1A2; 45.8% on CYP3A4; 59.1% on CYP2C8. For the same molecule, the results for the inhibition at 10 µM at CYP2C19 and at CYP2D6 were 60.2% and 6.8%, respectively. Further, the Ki in data set [2] was found to be 1.35 nM. Moreover, the IC50 in data set [2] stood at 2.7 nM.

The record behind these values is patent publication US12441718B2, “Selective angiotensin II compounds” (VICORE PHARMA AB, priority 2021, dated 2025).
